We go through six molecules from patent US20260356804A1, “SODIUM CHANNEL BLOCKING COMPOUNDS, DERIVATIVES THEREOF, AND METHODS OF THEIR USE” (LATIGO BIOTHERAPEUTICS, INC., priority 2022, published 2026).

SMILES strings stand for the structures.

Assay [1] deals with T1, human Nav1.8/β1 (Homo sapiens, UniProt Q9Y5Y9).
T1 construct: host or cells: HEK293
In words: Compound Profiling Human NaV1.8/β1 Cell Line—Sophion QPatch II Assay (automated patch clamp, stably transfected HEK293 cells). The assay is classed as cell-based. How it is done: Compounds were tested on recombinant human Nav1.8/β1 stably transfected HEK293 (Eurofins, CYL3025, St. Charles, MO) cells using the QPatch II system (Sophion Bioscience A/S, Ballerup—Denmark), an automated patch clamp device. Cells were cultured at 37° C./5% CO2 in DMEM/F-12 supplemented with 10% fetal bovine serum, 1× Non-Essential Amino Acids, and selection antibiotics (0.625 μg/mL Puromycin, 400 μg/mL Geneticin, and 100 μg/mL Hygromycin). One or two days prior to recording, cells were moved to a lower temperature 30° C./5% CO2 incubator to increase surface expression of the channels. On the day of the recordings, cells in culture dishes were washed twice with Ca^2+—Mg^2+ free DPBS and treated with Detachin (Genlantis, San Diego) for 3 minutes and then resuspended in Serum Free Medium (EX-CELL® ACF CHO Medium for Cell Culture (Sigma-Aldrich) supplemented with 0.04 mg/mL soybean trypsin Inhibitor and 25 mM HEPES (all components supplied by Sigma-Aldrich, St. Louis, MO) and allowed to recover for a minimum of 20 minutes in the onboard QStirrer. All experiments were performed at ambient temperature. Intracellular solution contained (mM): CsCl, 50; CsF, 90; MgCl2, 2; EGTA, 5; HEPES, 10; pH adjusted to 7.2 with CsOH. Extracellular solution contained (mM): NaCl, 137; KCl, 4; CaCl2), 3.8; MgCl2, 1; HEPES, 10; Glucose, 10; pH adjusted to 7.4 with NaOH. [LEFT OUT].
Compounds were tested in an interleaved manner across two cohorts of wells to develop an aggregate 8-point concentration response curve. Final concentrations include 0.1% DMSO and 0.03% pluronic Acid. In general, the concentration range spans a range from 0.01-300 nM. Compounds were diluted 1:10 with extracellular solution within their respective cohort. DMSO (0.1% by volume) served as a vehicle control to ascertain assay performance.
(§1) Whole cell patch clamp recordings were conducted according to Sophion standard procedure for QPatch II®. Cells were held at a holding potential of −120 mV. A depolarizing step to 10 mV for 30 ms was applied to elicit inward Na^+ currents. Inter-sweep interval was 15 sec. Following establishment of the whole-cell configuration in extracellular solution, cells were washed twice in extracellular solution containing 0.1% DMSO and 0.03% pluronic acid to stabilize the baseline current. Compounds were then applied by the QPatch II system into each well in an ascending manner within cohort and the current was recorded for five minutes for each concentration. Percent of current remaining was determined by taking the average of the last 5 sweeps within each concentration and normalizing to the latest pre-compound saline period. The potency (IC50) values of the compounds were only assessed against resting state block. Wells whose initial sodium current magnitude were below 2 nA or whole cell resistance fell below 100 MΩ were excluded from analysis.
as §1, with “MO” for “MΩ”, “analysis. […]” for “analysis.”

The target of assay [2] is T2, human Nav1.8/b3 (Homo sapiens, UniProt Q9Y5Y9).
T2 construct: expressed in transfected cells; host or cells: CHO
Put plainly: Compound Profiling Human NaV1.8/β3 Cell Line—SyncroPatch384PE Assay (automated patch clamp, stably transfected CHO cells). The conditions noted are these: Nav1.8/b3 CHO cells, third set of compounds. The assay is classed as cell-based.

[3] abbreviates: P1 (IC50, resting state block), P1 measurement, resting state block, holding potential −120 mV.
Where [4] appears, read: P2 (IC50, inactivated state block), P2 measurement, inactivated state block, inactivation step −35 mV 10 sec.

T2 sequence (Q9Y5Y9 whole entry): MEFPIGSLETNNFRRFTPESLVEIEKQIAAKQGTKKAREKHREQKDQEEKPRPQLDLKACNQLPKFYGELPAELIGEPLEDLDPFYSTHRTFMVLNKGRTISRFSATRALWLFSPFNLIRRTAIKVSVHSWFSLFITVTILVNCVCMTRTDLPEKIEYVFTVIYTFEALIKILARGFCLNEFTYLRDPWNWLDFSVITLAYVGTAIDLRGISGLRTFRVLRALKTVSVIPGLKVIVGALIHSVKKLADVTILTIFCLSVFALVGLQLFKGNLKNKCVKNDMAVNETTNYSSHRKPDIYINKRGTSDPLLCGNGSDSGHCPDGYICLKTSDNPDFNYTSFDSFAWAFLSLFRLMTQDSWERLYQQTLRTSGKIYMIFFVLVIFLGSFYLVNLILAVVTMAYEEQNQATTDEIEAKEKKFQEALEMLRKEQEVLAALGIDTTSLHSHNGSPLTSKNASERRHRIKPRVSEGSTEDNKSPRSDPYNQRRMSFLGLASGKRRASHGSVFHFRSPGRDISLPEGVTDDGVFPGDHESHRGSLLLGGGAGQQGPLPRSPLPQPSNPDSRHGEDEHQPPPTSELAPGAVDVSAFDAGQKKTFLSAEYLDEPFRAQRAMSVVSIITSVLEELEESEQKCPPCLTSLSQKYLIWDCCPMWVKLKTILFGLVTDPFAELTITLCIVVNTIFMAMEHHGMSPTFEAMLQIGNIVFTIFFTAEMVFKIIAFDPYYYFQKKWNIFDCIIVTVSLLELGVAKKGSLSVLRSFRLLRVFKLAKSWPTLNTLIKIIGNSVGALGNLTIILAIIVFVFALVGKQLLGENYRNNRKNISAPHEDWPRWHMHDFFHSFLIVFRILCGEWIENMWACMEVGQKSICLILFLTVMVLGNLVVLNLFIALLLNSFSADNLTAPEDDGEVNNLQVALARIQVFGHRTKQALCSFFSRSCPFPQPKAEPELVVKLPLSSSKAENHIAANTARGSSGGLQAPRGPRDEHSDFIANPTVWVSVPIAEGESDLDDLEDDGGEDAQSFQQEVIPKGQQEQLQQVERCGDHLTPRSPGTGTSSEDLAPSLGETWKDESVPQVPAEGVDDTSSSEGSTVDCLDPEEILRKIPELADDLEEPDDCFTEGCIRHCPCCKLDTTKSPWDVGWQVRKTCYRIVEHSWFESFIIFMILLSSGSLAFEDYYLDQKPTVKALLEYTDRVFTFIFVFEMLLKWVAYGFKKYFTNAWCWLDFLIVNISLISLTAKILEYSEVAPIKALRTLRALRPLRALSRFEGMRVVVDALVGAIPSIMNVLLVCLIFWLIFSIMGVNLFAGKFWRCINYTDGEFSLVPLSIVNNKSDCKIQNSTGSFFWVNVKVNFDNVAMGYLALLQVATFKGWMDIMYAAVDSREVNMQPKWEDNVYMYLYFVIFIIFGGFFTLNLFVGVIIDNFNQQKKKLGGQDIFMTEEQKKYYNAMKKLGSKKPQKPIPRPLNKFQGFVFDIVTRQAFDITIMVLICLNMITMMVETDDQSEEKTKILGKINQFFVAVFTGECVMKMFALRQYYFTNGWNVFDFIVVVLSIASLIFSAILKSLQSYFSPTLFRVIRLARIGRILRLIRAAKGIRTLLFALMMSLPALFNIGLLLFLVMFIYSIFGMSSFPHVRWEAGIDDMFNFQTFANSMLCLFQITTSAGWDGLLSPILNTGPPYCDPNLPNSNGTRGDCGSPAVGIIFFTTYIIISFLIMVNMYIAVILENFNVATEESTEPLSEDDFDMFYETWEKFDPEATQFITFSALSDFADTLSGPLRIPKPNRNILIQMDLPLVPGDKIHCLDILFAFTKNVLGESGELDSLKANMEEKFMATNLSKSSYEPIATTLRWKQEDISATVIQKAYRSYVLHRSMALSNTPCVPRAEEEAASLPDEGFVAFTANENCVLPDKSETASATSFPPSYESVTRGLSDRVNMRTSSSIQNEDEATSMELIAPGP
T2 sequence (Q9NY72 23-215 partner): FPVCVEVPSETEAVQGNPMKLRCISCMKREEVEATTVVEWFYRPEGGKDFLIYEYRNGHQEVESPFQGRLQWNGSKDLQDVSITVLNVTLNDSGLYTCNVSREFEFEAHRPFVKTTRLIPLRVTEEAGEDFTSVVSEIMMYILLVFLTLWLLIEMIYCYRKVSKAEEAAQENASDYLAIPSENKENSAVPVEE
T1 sequence (Q9Y5Y9 whole entry): as the sequence (Q9Y5Y9 whole entry) above
T1 sequence (Q07699 19-218 partner): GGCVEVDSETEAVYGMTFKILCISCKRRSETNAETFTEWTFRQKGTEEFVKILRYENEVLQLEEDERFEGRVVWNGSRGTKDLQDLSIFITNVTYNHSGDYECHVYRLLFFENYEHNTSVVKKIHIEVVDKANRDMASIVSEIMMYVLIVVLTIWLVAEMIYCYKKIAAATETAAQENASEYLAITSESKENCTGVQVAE

Turning to `Cc1nc(F)ccc1Oc1ncc(C(F)(F)F)c(C)c1C(=O)N[C@H]1C[C@H](C(N)=O)C1` [Example 84C], in assay [1], the IC50 (as a rule, the point on the concentration scale where inhibition reaches its midpoint) was above 200 nM.

As for `Cc1nc(F)ccc1Oc1ncc(C(F)(F)F)c(C)c1C(=O)N[C@H]1C[C@@H](C(N)=O)C1` [Example 85C], the concentration for half-maximal inhibition (IC50) in assay [1] is above 200 nM.

As for `Cc1nc(F)ccc1Oc1ncc(C2CCCC2)c(C)c1C(=O)Nc1ccnc([S@](C)(=N)=O)c1` [Example 86C], the half-inhibitory concentration (IC50) in assay [2] (setting [3]), in assay [2] (setting [4]) and in assay [1] was 5 to 50 nM throughout.

For the molecule `Cc1nc(F)ccc1Oc1ncc(C2CCCC2)c(C)c1C(=O)Nc1cccc([S@](C)(=N)=O)c1` [Example 87C], the IC50 in assay [2] (setting [3]), in assay [2] (setting [4]) and in assay [1] was 5 to 50 nM in each case.

`Cc1nc(F)ccc1Oc1ncc(C(F)(F)F)c(C)c1C(=O)Nc1ccc(F)c(S(C)(=O)=NCCN)c1` (stereo not drawn) [Example 88C]: the results for the 50% inhibitory concentration (IC50) in assay [2] (setting [3]), in assay [2] (setting [4]) and in assay [1] were below 5 nM, below 5 nM and 5 to 50 nM, respectively.

In assay [1], `Cc1c(C(F)(F)F)cnc(Oc2ccc(F)nc2CO)c1C(=O)Nc1cccc([S@](C)(=N)=O)c1` [Example 89C] displayed a half-maximal inhibitory concentration (IC50) above 200 nM.
